Measured values: US10329320B2, “Neuroactive steroids, compositions, and uses thereof” (Sage Therapeutics, Inc., priority 2015, dated 2019)

target: GABAA receptor ([35S]-TBPS binding, rat brain cortical membranes); assay: Steroid inhibition of [35S]-TBPS binding (radioligand displacement); details: 3 nM [35S]-TBPS, in the presence of 5 μM GABA
Description: TBPS binding assays using rat brain cortical membranes in the presence of 5 μM GABA has been described (Gee et al, J. Pharmacol. Exp. Ther. 1987, 241, 346-353; Hawkinson et al, Mol. Pharmacol. 1994, 46, 977-985; Lewin, A. H et al., Mol. Pharmacol. 1989, 35, 189-194).
Briefly, cortices are rapidly removed following decapitation of carbon dioxide-anesthetized Sprague-Dawley rats (200-250 g). The cortices are homogenized in 10 volumes of ice-cold 0.32 M sucrose using a glass/teflon homogenizer and centrifuged at 1500×g for 10 min at 4° C. The resultant supernatants are centrifuged at 10,000×g for 20 min at 4° C. to obtain the P2 pellets. The P2 pellets are resuspended in 200 mM NaCl/50 mM Na—K phosphate pH 7.4 buffer and centrifuged at 10,000×g for 10 min at 4° C. This washing procedure is repeated twice and the pellets are resuspended in 10 volumes of buffer. Aliquots (100 μL) of the membrane suspensions are incubated with 3 nM [^35S]-TBPS and 5 μL aliquots of test drug dissolved in dimethyl sulfoxide (DMSO) (final 0.5%) in the presence of 5 μM GABA. The incubation is brought to a final volume of 1.0 mL with buffer. Nonspecific binding is determined in the presence of 2 μM unlabeled TBPS and ranged from 15 to 25%. Following a 90 min incubation at room temp, the assays are terminated by filtration through glass fiber filters (Schleicher and Schuell No. 32) using a cell harvester (Brandel) and rinsed three times with ice-cold buffer. Filter bound radioactivity is measured by liquid scintillation spectrometry. Non-linear curve fitting of the overall data for each drug averaged for each concentration is done using Prism (GraphPad). […] The concentration of test compound producing 50% inhibition (IC50) of specific binding and the maximal extent of inhibition (Imax) are determined for the individual experiments with the same model used for the overall data and then the means ±SEM.s of the individual experiments are calculated.
Various compounds are or can be screened to determine their potential as modulators of [^35S]-TBPS binding in vitro. These assays are or can be performed in accordance with the above discussed procedures.

| SMILES | IC50 [nM] |
| --- | --- |
| COC[C@]12CC[C@@](C)(O)C[C@H]1CC[C@H]1[C@@H]3CC[C@H](C(=O)Cn4ccnc4C)[C@@]3(C)CC[C@@H]12 [Compound 64] | 100 to 500 |
| COC[C@]12CC[C@@](C)(O)C[C@H]1CC[C@H]1[C@@H]3CC[C@H](C(=O)Cn4cc(SC)cn4)[C@@]3(C)CC[C@@H]12 [Compound 34] | 10 to 50 |
| CC(C)OC[C@]12CC[C@@](C)(O)C[C@H]1CC[C@H]1[C@@H]3CC[C@H](C(=O)Cn4ncnn4)[C@@]3(C)CC[C@@H]12 [Compound 72] | < 10 |
| COC[C@]12CC[C@@](C)(O)C[C@@H]1CC[C@H]1[C@@H]3CC[C@H](C(=O)Cn4cc5cc(F)ncc5n4)[C@@]3(C)CC[C@@H]12 [Compound 75] | 100 to 500 |
| COC[C@]12CC[C@@](C)(O)C[C@@H]1CC[C@H]1[C@@H]3CC[C@H](C(=O)Cn4cc5c(OC)cccc5n4)[C@@]3(C)CC[C@@H]12 [Compound 40] | 50 to 100 |
| CCOc1cnn(CC(=O)[C@H]2CC[C@H]3[C@@H]4CC[C@H]5C[C@](C)(O)CC[C@]5(COC)[C@H]4CC[C@]23C)c1 [Compound 61] | 100 to 500 |
